Results: the kinase profiling compilation of Christmann-Franck et al. (2016)

Assays:
Assay in all cases: radiometric filter-binding kinase assay, Kinase HotSpot
Details in all cases: compound 0.5 µM; ATP 10 µM
CSF1R (human) = CSF1R (human) (UniProt P07333)
PRKCA (human) = PRKCA (human) (UniProt P17252)
MAP4K5 (human) = MAP4K5 (human) (UniProt Q9Y4K4)
TSSK1B (human) = TSSK1B (human) (UniProt Q9BXA7)
RPS6KA2 KD1 KD2 (human) = RPS6KA2 KD1 KD2 (human) (UniProt Q15349)
GSK3A (human) = GSK3A (human) (UniProt P49840)
NEK1 (human) = NEK1 (human) (UniProt Q96PY6)
STK3 (human) = STK3 (human) (UniProt Q13188)
CAMK2B (human) = CAMK2B (human) (UniProt Q13554)
PIM2 (human) = PIM2 (human) (UniProt Q9P1W9)
CAMK4 (human) = CAMK4 (human) (UniProt Q16566)
FES (human) = FES (human) (UniProt P07332)
PIM3 (human) = PIM3 (human) (UniProt Q86V86)
SGK3 (human) = SGK3 (human) (UniProt Q96BR1)
MAPKAPK2 (human) = MAPKAPK2 (human) (UniProt P49137)
MINK1 (human) = MINK1 (human) (UniProt Q8N4C8)
RET (human) = RET (human) (UniProt P07949)
RPS6KA1 KD1 KD2 (human) = RPS6KA1 KD1 KD2 (human) (UniProt Q15418)
OXSR1 (human) = OXSR1 (human) (UniProt O95747)
ITK (human) = ITK (human) (UniProt Q08881)
CDK3 CCNE1 (human) = CDK3 CCNE1 (human) (UniProt Q00526+P24864)
MST1R (human) = MST1R (human) (UniProt Q04912)
EGFR (human) = EGFR (human) (UniProt P00533)
RIPK2 (human) = RIPK2 (human) (UniProt O43353)
SIK2 (human) = SIK2 (human) (UniProt Q9H0K1)
[1] = target: JAK1 JH1 catalytic (human) (UniProt P23458)
TEK (human) = TEK (human) (UniProt Q02763)
ULK2 (human) = ULK2 (human) (UniProt Q8IYT8)
CDK6 CCND3 (human) = CDK6 CCND3 (human) (UniProt P30281+Q00534)
MAPK10 (human) = MAPK10 (human) (UniProt P53779)
PRKCI (human) = PRKCI (human) (UniProt P41743)
MUSK (human) = MUSK (human) (UniProt O15146)
BRSK1 (human) = BRSK1 (human) (UniProt Q8TDC3)
PRKG2 (human) = PRKG2 (human) (UniProt Q13237)
IKBKB (human) = IKBKB (human) (UniProt O14920)
MAP4K4 (human) = MAP4K4 (human) (UniProt O95819)
MATK (human) = MATK (human) (UniProt P42679)
MAP2K2 (human) = MAP2K2 (human) (UniProt P36507)
TYRO3 (human) = TYRO3 (human) (UniProt Q06418)
EPHA5 (human) = EPHA5 (human) (UniProt P54756)
MAP3K10 (human) = MAP3K10 (human) (UniProt Q02779)
PASK (human) = PASK (human) (UniProt Q96RG2)

Sequence of PRKCI (human) (P41743 whole entry, looked up): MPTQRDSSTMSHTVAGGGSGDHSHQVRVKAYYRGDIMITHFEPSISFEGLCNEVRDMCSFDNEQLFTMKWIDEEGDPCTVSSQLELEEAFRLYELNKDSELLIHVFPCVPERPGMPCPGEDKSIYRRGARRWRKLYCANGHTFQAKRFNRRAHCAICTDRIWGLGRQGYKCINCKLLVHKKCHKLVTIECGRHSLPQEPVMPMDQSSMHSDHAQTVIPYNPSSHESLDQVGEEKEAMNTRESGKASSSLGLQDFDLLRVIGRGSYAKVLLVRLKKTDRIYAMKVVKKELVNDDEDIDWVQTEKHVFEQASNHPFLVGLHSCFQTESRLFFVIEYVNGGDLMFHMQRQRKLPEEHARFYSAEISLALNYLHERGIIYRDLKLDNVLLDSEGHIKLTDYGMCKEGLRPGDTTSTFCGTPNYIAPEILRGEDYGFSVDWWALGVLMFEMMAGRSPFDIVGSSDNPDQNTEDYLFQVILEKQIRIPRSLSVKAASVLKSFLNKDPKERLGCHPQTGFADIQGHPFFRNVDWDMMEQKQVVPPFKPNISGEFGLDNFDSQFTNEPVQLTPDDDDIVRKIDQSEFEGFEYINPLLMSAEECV
Sequence of MAP4K5 (human) (Q9Y4K4 whole entry, looked up): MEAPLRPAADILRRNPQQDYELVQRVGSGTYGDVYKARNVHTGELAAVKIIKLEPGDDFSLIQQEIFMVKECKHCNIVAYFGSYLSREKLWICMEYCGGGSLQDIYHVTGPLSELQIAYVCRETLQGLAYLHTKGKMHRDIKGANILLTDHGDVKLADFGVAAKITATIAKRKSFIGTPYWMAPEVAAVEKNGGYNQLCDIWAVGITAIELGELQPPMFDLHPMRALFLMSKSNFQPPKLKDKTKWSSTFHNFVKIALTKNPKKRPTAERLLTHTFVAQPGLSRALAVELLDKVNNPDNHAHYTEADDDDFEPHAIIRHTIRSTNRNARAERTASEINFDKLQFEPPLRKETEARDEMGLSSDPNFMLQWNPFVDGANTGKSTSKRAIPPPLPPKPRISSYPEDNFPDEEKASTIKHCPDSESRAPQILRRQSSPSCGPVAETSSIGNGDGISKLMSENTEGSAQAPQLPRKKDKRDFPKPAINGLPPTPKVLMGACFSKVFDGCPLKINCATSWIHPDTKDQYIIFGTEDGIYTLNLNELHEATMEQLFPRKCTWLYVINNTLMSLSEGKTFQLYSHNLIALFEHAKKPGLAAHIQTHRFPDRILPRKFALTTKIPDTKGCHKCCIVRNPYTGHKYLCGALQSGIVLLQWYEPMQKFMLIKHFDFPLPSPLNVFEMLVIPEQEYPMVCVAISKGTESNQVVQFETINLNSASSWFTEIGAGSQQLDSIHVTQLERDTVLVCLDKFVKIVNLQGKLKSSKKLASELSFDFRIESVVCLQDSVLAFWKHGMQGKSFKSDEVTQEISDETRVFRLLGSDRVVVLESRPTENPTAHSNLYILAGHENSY
Sequence of GSK3A (human) (P49840 whole entry, looked up): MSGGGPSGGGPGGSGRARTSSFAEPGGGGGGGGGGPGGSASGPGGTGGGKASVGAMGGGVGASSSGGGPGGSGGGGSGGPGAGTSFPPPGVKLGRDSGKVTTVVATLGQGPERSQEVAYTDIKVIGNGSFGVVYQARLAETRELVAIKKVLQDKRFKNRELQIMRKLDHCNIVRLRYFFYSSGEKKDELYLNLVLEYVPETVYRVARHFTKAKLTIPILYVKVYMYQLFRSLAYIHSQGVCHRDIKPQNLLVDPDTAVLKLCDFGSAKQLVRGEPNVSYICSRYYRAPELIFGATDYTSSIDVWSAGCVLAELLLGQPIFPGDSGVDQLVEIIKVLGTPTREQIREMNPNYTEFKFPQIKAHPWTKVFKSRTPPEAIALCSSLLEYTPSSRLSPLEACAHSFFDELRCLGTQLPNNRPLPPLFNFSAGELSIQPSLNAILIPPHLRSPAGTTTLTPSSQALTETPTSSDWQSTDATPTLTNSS
Sequence of NEK1 (human) (Q96PY6 whole entry, looked up): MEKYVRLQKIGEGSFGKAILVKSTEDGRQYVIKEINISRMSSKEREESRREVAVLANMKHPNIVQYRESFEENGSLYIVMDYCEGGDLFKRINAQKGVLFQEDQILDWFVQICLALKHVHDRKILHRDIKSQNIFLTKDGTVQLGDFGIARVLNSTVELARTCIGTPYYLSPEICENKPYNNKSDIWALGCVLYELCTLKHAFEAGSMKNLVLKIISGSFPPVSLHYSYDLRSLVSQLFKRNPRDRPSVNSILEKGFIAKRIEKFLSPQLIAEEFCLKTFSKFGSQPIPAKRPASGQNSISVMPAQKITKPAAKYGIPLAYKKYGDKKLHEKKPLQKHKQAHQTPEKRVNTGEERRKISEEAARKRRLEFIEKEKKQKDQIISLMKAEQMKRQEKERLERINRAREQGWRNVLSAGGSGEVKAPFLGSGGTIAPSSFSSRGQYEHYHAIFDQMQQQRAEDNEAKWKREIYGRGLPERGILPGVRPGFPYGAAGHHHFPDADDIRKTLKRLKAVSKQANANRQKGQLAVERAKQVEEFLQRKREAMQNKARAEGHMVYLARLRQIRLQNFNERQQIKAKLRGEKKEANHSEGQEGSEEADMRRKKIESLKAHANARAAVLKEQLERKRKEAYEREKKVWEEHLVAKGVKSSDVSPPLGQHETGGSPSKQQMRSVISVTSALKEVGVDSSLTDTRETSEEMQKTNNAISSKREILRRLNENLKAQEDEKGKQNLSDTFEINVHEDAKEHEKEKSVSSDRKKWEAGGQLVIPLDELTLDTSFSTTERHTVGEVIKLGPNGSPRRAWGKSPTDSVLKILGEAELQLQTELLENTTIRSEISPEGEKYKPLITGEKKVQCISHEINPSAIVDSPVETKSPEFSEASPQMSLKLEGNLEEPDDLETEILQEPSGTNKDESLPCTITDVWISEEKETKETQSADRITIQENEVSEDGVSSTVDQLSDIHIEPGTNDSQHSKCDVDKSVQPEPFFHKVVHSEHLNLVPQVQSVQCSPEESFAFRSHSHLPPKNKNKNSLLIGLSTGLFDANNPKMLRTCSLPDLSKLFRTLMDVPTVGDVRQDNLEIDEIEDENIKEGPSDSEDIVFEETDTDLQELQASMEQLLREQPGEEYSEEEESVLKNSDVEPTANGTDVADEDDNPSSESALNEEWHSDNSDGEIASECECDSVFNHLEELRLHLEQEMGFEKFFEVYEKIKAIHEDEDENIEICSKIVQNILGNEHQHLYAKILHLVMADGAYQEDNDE
Sequence of SIK2 (human) (Q9H0K1 whole entry, looked up): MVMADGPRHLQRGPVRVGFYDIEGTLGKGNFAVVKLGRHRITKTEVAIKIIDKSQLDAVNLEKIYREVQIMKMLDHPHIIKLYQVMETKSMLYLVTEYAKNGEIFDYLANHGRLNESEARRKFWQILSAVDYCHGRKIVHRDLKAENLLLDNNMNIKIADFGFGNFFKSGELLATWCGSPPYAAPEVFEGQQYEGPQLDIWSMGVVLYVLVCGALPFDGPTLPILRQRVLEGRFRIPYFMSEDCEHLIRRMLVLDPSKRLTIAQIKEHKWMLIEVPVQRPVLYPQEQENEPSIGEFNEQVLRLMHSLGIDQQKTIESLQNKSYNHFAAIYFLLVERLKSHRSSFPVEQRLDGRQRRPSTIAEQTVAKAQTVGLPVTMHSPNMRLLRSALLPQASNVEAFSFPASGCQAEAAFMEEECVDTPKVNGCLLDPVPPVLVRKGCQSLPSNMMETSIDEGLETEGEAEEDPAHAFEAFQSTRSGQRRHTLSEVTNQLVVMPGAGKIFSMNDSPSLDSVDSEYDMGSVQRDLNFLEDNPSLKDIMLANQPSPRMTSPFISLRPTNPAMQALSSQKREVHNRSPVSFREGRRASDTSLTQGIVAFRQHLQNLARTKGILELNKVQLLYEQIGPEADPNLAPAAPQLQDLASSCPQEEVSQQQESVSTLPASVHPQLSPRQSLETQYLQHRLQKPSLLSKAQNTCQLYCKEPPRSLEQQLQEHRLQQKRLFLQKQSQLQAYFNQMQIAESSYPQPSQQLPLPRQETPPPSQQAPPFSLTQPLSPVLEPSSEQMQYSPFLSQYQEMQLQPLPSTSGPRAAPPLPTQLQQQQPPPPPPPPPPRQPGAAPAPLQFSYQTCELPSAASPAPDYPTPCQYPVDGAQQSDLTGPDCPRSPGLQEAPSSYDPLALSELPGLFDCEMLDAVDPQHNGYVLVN
Sequence of TSSK1B (human) (Q9BXA7 whole entry, looked up): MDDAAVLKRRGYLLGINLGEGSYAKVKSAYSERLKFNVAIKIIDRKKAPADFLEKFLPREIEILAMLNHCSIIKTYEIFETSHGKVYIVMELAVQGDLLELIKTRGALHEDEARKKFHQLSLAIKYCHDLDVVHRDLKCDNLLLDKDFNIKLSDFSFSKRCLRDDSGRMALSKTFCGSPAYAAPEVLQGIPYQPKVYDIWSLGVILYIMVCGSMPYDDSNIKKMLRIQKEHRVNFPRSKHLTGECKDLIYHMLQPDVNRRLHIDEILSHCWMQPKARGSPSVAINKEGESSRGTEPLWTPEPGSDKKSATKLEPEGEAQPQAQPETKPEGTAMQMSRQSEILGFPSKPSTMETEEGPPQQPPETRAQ

Q: `N#C/C(=C(/N)Sc1ccc(N)cc1)c1ccccc1C(F)(F)F` was tested. Which residual activity (CSF1R (human)) did it give?
A: 101%

Q: What about the residual activity (PRKCA (human)) of the same compound?
A: 100%

Q: What about the residual activity (MAP4K5 (human)) of the same compound?
A: 94%

Q: What about the residual activity (TSSK1B (human)) of the same compound?
A: 103%

Q: What about the residual activity (RPS6KA2 KD1 KD2 (human)) of the same compound?
A: 99.2%

Q: What about the residual activity (GSK3A (human)) of the same compound?
A: 110%

Q: And the residual activity (NEK1 (human))?
A: 99%

Q: What about the residual activity (STK3 (human)) of the same compound?
A: 125%

Q: And the residual activity (CAMK2B (human))?
A: 93.5%

Q: What about the residual activity (PIM2 (human)) of the same compound?
A: 103%

Q: And the residual activity (CAMK4 (human))?
A: 110%

Q: What about the residual activity (FES (human)) of the same compound?
A: 98%

Q: What about the residual activity (PIM3 (human)) of the same compound?
A: 111%

Q: And the residual activity (SGK3 (human))?
A: 105%

Q: What about the residual activity (MAPKAPK2 (human)) of the same compound?
A: 103%

Q: What about the residual activity (MINK1 (human)) of the same compound?
A: 104%

Q: And the residual activity (RET (human))?
A: 101%

Q: What about the residual activity (RPS6KA1 KD1 KD2 (human)) of the same compound?
A: 88.7%

Q: And the residual activity (OXSR1 (human))?
A: 101%

Q: And the residual activity (ITK (human))?
A: 97.4%

Q: What about the residual activity (CDK3 CCNE1 (human)) of the same compound?
A: 105%

Q: And the residual activity (MST1R (human))?
A: 90.4%

Q: And the residual activity (EGFR (human))?
A: 97.3%

Q: What about the residual activity (RIPK2 (human)) of the same compound?
A: 91%

Q: And the residual activity (SIK2 (human))?
A: 101%

Q: What about the residual activity [1] of the same compound?
A: 106%

Q: And the residual activity (TEK (human))?
A: 104%

Q: And the residual activity (ULK2 (human))?
A: 115%

Q: What about the residual activity (CDK6 CCND3 (human)) of the same compound?
A: 103%

Q: What about the residual activity (MAPK10 (human)) of the same compound?
A: 94.7%

Q: And the residual activity (PRKCI (human))?
A: 102%

Q: And the residual activity (MUSK (human))?
A: 91.9%

Q: And the residual activity (BRSK1 (human))?
A: 91.2%

Q: What about the residual activity (PRKG2 (human)) of the same compound?
A: 113%

Q: And the residual activity (IKBKB (human))?
A: 100%

Q: What about the residual activity (MAP4K4 (human)) of the same compound?
A: 93.4%

Q: What about the residual activity (MATK (human)) of the same compound?
A: 90.7%

Q: What about the residual activity (MAP2K2 (human)) of the same compound?
A: 94.5%

Q: What about the residual activity (TYRO3 (human)) of the same compound?
A: 110%

Q: What about the residual activity (EPHA5 (human)) of the same compound?
A: 116%

Q: What about the residual activity (MAP3K10 (human)) of the same compound?
A: 88.1%

Q: And the residual activity (PASK (human))?
A: 101%

Q: What does the source list for `Cc1ccc(S(=O)(=O)/C=C/C#N)cc1`?
A: residual activity (CSF1R (human)): 93.6%; residual activity (PRKCA (human)): 70.6%; residual activity (MAP4K5 (human)): 97.8%; residual activity (TSSK1B (human)): 97.4%; residual activity (RPS6KA2 KD1 KD2 (human)): 100%; residual activity (GSK3A (human)): 106%; residual activity (NEK1 (human)): 92.3%; residual activity (STK3 (human)): 93.6%; residual activity (CAMK2B (human)): 106%; residual activity (PIM2 (human)): 103%; residual activity (CAMK4 (human)): 96.4%; residual activity (FES (human)): 100%; residual activity (PIM3 (human)): 93.6%; residual activity (SGK3 (human)): 108%; residual activity (MAPKAPK2 (human)): 93.7%; residual activity (MINK1 (human)): 111%; residual activity (RET (human)): 102%; residual activity (RPS6KA1 KD1 KD2 (human)): 91.6%; residual activity (OXSR1 (human)): 103%; residual activity (ITK (human)): 102%; residual activity (CDK3 CCNE1 (human)): 99.7%; residual activity (MST1R (human)): 113%; residual activity (EGFR (human)): 97.5%; residual activity (RIPK2 (human)): 93.8%; residual activity (SIK2 (human)): 106%; residual activity [1]: 98.2%; residual activity (TEK (human)): 101%; residual activity (ULK2 (human)): 110%; residual activity (CDK6 CCND3 (human)): 104%; residual activity (MAPK10 (human)): 107%; residual activity (PRKCI (human)): 90.3%; residual activity (MUSK (human)): 107%; residual activity (BRSK1 (human)): 97.2%; residual activity (PRKG2 (human)): 102%; residual activity (IKBKB (human)): 110%; residual activity (MAP4K4 (human)): 106%; residual activity (MATK (human)): 101%; residual activity (MAP2K2 (human)): 91%; residual activity (TYRO3 (human)): 99.8%; residual activity (EPHA5 (human)): 111%; residual activity (MAP3K10 (human)): 105%; residual activity (PASK (human)): 99.3%

Q: Which results are given for `CO[C@H]1CC2CC[C@@H](C)[C@@](O)(O2)C(=O)C(=O)N2CCCC[C@H]2C(=O)OC([C@H](C)C[C@@H]2CC[C@@H](O)[C@H](OC)C2)CC(=O)[C@H](C)/C=C(\C)[C@@H](O)[C@@H](OC)C(=O)[C@H](C)C[C@H](C)/C=C/C=C/C=C/1C` (stereo partly specified)?
A: residual activity (CSF1R (human)): 101%; residual activity (PRKCA (human)): 108%; residual activity (MAP4K5 (human)): 110%; residual activity (TSSK1B (human)): 103%; residual activity (RPS6KA2 KD1 KD2 (human)): 89.5%; residual activity (GSK3A (human)): 106%; residual activity (NEK1 (human)): 104%; residual activity (STK3 (human)): 105%; residual activity (CAMK2B (human)): 99.2%; residual activity (PIM2 (human)): 102%; residual activity (CAMK4 (human)): 99.1%; residual activity (FES (human)): 108%; residual activity (PIM3 (human)): 106%; residual activity (SGK3 (human)): 98.1%; residual activity (MAPKAPK2 (human)): 101%; residual activity (MINK1 (human)): 100%; residual activity (RET (human)): 98.7%; residual activity (RPS6KA1 KD1 KD2 (human)): 104%; residual activity (OXSR1 (human)): 96.6%; residual activity (ITK (human)): 92.5%; residual activity (CDK3 CCNE1 (human)): 102%; residual activity (MST1R (human)): 97%; residual activity (EGFR (human)): 93.3%; residual activity (RIPK2 (human)): 90.5%; residual activity (SIK2 (human)): 94.3%; residual activity [1]: 103%; residual activity (TEK (human)): 97.6%; residual activity (ULK2 (human)): 120%; residual activity (CDK6 CCND3 (human)): 105%; residual activity (MAPK10 (human)): 95.9%; residual activity (PRKCI (human)): 99.1%; residual activity (MUSK (human)): 87.7%; residual activity (BRSK1 (human)): 99.9%; residual activity (PRKG2 (human)): 91.9%; residual activity (IKBKB (human)): 109%; residual activity (MAP4K4 (human)): 87.7%; residual activity (MATK (human)): 92%; residual activity (MAP2K2 (human)): 103%; residual activity (TYRO3 (human)): 98.5%; residual activity (EPHA5 (human)): 94.7%; residual activity (MAP3K10 (human)): 109%; residual activity (PASK (human)): 101%
